# Reference: patent publication US9353096B2, “Substituted phenylcarbamate compounds” (Hoffmann-La Roche Inc., priority 2012, dated 2016)
# Where a name gives a salt, the structure may show the parent alone.
# Biological target: hTRPA1 (Homo sapiens, UniProt O75762)
# Assay: Dose response calcium flux (FLIPR) assay, ChanTest hTRPA1-CHO stably transfected cell line, cinnamaldehyde agonist
# Type: cell-based
# Settings: CHO-K1 Tet-On hTRPA1 cells, 100 uM cinnamaldehyde agonist, 30 min preincubation
# Procedure: Dose Response Assay:ChanTest hTRPA1-CHO Stably Transfected Cell Line
# CHO-K1 Tet-On_HOMSA_TRPA1_Clone_20
# Growth Media for CHO-K1 Tet-On_HOMSA_TRPA1_Clone_20 • Ham's F-12 with 10% tetracycline-free FBS • 1× penicillin-streptomycin • 1× glutamax • 0.01 mg/ml Blasticidin • 0.40 mg/ml Zeocin • The cell line doubling rate was ˜15 h. […] Experiments were run at 24 h post induction.
# Plating Conditions CHOK1/TRPA1 Cells: • Harvested cells with 0.025% trypsin/EDTA. • Resuspended cells in growth media without selection antibiotics. • Measured cell density and diluted to 2.4×10^5 cells/ml in media containing 1 ug/ml Doxycycline Plate 25 ul/well into 384 well black/clear tissue culture-treated plates. • Incubated overnight at 37° C.
# Replacement Buffer: Hank's Balanced Salt Solution, 20 mM HEPES along with 0.005% BSA and 2× Probenecid
# Dye Loading Buffer: Cal-3 NW Calcium dye was prepared by dissolving the contents of one vial with […] Hank's Balanced Salt Solution containing 20 mM HEPES.
# AP-18, stock 10 mM, prepare 3.5× compound dilution in a Compound Buffer (HBSS/20 mM HEPES/0.005% BSA)—final concentration 10 uM.
# Preparation of Cinnamaldehyde (Agonist Addition): • FW=132.16 • Specific gravity=1.046 gm/cc • 1.32 gm/1.046 gm/cc=1.26 ml of stock • Add 1.74 ml DMSO=3.3 M stock • Working solution 4.5× (final 100 uM in Compound Buffer: HBSS/20 mM HEPES/0.005% BSA)
# Compounds dilutions were prepared from 5 or 10 mM stock (100% DMSO): • Adjustments of volumes and concentrations were made at time of titration to reflect desired final assay concentrations. • Compounds were tested at either 20 μM three folds dilution 11 steps out or 30 μM two folds dilution 11 steps out. • 3 μl of diluted compound were transferred into Weidmann 384-well plate in duplicates side-by-side. • Compound plates were resuspended with 100 ul of HBSS/20 mM HEPES/0.005% BSA buffer (Compound Buffer): • column 1A-H: buffer/DMSO (bk) • column 2A-H: AP-18 (control antagonist for CHOK1 TRPA1 cells) • column 1I-P: ATP (control for CHOK1 teton cells) • column 2I-P: 2APB (control antagonist for CHOK1/TRPM8 cells).
# Growth media was removed from the cell plates (20 ul) and 20 μl of the Replacement Buffer was added followed by addition of 25 μl of diluted dye. All three steps were performed using a Plate Washer BioTek 407. The plates were then incubated for 30′ at RT.
# After incubation, both the cell and compound plates were brought to the FLIPR and 20 μl of the diluted compounds/antagonist/bk were transferred to the cell plates by the FLIPR. Plates were then incubated for 30′ at room temperature. After 30′ incubation, plates were returned to the FLIPR and 20 μl of 4.5× Cinnamaldehyde was added to the cell plates. During the compound addition as well as agonist addition, fluorescence readings were taken simultaneously from all 384 wells of the cell plate every 1.5 seconds. Five readings were taken to establish a stable baseline, then 20 μl of sample was rapidly (30 ul/sec) and simultaneously added to each well of the cell plate. The fluorescence was continuously monitored before, during and after sample/agonist addition for a total elapsed time of 100 seconds (compound addition) and 120 seconds (agonist addition). Responses (increase in peak fluorescence) in each well following agonist addition was determined. The initial fluorescence reading from each well, prior to ligand stimulation, was used a zero baseline value for the data from that well.
# Chain of hTRPA1 (O75762 whole entry): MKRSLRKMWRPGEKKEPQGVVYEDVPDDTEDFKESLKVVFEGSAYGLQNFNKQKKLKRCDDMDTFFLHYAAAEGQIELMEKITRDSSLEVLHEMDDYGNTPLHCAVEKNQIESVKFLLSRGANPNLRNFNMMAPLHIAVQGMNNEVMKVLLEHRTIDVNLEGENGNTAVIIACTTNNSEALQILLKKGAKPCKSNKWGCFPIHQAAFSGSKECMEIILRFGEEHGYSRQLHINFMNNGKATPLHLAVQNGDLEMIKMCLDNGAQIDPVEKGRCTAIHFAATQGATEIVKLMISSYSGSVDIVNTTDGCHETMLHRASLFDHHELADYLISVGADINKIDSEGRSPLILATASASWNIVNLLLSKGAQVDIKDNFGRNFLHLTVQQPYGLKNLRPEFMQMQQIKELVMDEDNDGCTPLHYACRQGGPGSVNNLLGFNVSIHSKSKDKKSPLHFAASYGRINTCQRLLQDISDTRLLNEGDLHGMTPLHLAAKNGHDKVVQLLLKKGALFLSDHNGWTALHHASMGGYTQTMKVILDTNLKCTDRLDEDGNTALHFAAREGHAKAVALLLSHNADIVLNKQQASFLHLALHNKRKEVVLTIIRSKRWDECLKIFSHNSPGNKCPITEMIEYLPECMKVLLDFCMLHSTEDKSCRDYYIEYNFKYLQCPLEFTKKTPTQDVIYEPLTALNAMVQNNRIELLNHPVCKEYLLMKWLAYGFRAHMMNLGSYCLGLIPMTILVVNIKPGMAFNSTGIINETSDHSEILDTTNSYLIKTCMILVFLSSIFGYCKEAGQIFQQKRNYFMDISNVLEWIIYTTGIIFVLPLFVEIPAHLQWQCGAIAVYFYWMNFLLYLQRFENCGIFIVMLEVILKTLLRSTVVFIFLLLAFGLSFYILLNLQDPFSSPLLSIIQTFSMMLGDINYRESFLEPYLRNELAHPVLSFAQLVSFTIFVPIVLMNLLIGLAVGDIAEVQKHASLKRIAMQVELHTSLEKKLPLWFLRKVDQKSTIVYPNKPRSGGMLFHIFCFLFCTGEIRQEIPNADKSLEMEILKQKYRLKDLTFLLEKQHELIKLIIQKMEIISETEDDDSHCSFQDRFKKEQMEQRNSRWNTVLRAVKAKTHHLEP
row,IC50 [nM],Compound
1,115,"O=C(Nc1ccc(Cl)cc1)O[C@@H](CN1CCO[C@H](Cc2cccs2)C1)C(F)(F)F [Example 49, (4-Chlorophenyl)-carbamic acid (S)-2,2,2-trifluoro-1-((R)-2-thiophen-2-ylmethyl-morpholin-4-ylmethyl)-ethyl ester hydrochloride]"
2,244,"COc1ccc(C[C@@H]2CN(C[C@H](OC(=O)Nc3ccc(Cl)cc3)C(F)(F)F)CCO2)cn1 [Example 50, (4-Chloro-phenyl)-carbamic acid (S)-2,2,2-trifluoro-1-[(R)-2-(6-methoxy-pyridin-3-ylmethyl)-morpholin-4-ylmethyl]ethyl ester]"
3,398,"COc1cccc(C[C@@H]2CN(C[C@H](OC(=O)Nc3ccc(Cl)cc3)C(F)(F)F)CCO2)n1 [Example 51, (4-Chlorophenyl)-carbamic acid (S)-2,2,2-trifluoro-1-[(R)-2-(6-methoxy-pyridin-2-ylmethyl)-morpholin-4-ylmethyl]ethyl ester]"
